Measurements as given in paper PMC6855212, “Antibacterial activity of synthetic 1,3‐bis(aryloxy)propan‐2‐amines against Gram‐positive bacteria” (MicrobiologyOpen, 2019).
Values joined by “and” are separate entries in the source; they are usually repeats but may differ in a detail not shown here. Equal values may be shown once. Read-outs that look alike come from different tables or passages of the source.

Columns and labels:
MRSA strains = assay: MIC, broth microdilution, MRSA strains taken together; type: cell-based; details: Staphylococcus aureus; over the six MRSA strains (CPD18: four out of six); read-out: MIC against MRSA strains
Procedure: (§1) The antibacterial activity of the compounds was evaluated using the broth microdilution method in 96‐well microplates according to the Clinical and Laboratory Standards Institute protocol (CLSI, 2017). First, synthetic compounds were diluted in Mueller Hinton broth (MHB; Oxoid, Thermo Scientific, UK) to concentrations ranging from 20 to 2.5 μg/ml. The same volume of a bacterial suspension containing 10^5 CFU/ml was added to each of the previous solutions, resulting in final compound concentrations from 10 to 1.25 μg/ml. […] All conditions were tested in triplicate and the results shown are representative of three independent assays.

[1] = tested on: Gram‐positive bacteria (E. faecalis, S. aureus and S. pyogenes); assay: MIC, broth microdilution, Gram‐positive bacteria taken together; type: cell-based; details: Staphylococcus aureus; over different bacterial strains, including MRSA where stated; read-out: MIC against Gram‐positive bacteria, summary
Procedure: as §1

E. faecalis ATCC 29213 = assay: MBC, plating of wells without growth; type: cell-based; details: Enterococcus faecalis, ATCC29213; at least 99.9% inhibition of cell count
Procedure: (§2) After incubation at 35°C for 24 hr, the colonies were counted and the percentage of inhibition was calculated. MBC is defined as the lowest compound's concentration that inhibits at least 99.9% of the bacterial cell count compared to nontreated viability control (Clinical and Laboratory Standards Institute, 1999).

MRSA Strain 5749 [2] = assay: MBC, plating of wells without growth; type: cell-based; details: Staphylococcus aureus
Procedure: as §2

S. pyogenes ATCC 19615 = assay: MBC, plating of wells without growth; type: cell-based; details: Streptococcus pyogenes, ATCC19615; at least 99.9% inhibition of cell count
Procedure: as §2

MRSA Strain 6100 [3] = assay: MBC, plating of wells without growth; type: cell-based; details: Staphylococcus aureus
Procedure: as §2

MRSA Strain 5912 [4] = assay: MBC, plating of wells without growth; type: cell-based; details: Staphylococcus aureus
Procedure: as §2

MRSA ATCC 43300 [5] = assay: MBC, plating of wells without growth; type: cell-based; details: Staphylococcus aureus
Procedure: as §2

MRSA Strain 6154 [6] = assay: MBC, plating of wells without growth; type: cell-based; details: Staphylococcus aureus
Procedure: as §2

MRSA Strain 6613 [7] = assay: MBC, plating of wells without growth; type: cell-based; details: Staphylococcus aureus
Procedure: as §2

S. aureus ATCC 29212 = assay: MBC, plating of wells without growth; type: cell-based; details: Staphylococcus aureus, ATCC29212; at least 99.9% inhibition of cell count
Procedure: as §2

BSC‐40 cells = assay: Cytotoxicity, MTT reduction assay; type: cell-based; details: BSC‐40; bacterial strain not stated
Procedure: (§3) The cytotoxicity of active compounds to mammalian cells was assessed using the MTT reduction assay (Mosmann, 1983). Vero and BSC‐40 cells were seeded in 96‐well plates (8 × 10^4 cells per well) and incubated at 37°C and 5% CO2 atmosphere. After 24 hr of incubation, 200 μL of fresh medium containing a serial dilution of compounds (10–1.25 μg/ml) were added to the plates. After 48 hr of incubation in the same conditions, 100 μL of MTT solution in MEM or DMEM (5 mg/ml) was added to each well and incubated for 3 hr at 37°C and 5% CO2 atmosphere. The medium was removed and 100 μL of DMSO was used to solubilize formazan crystals. Absorbance at 570 nm of each well was read using a spectrophotometer (VersaMax, Molecular Devices).

Vero cells = assay: Cytotoxicity, MTT reduction assay; type: cell-based; details: bacterial strain not stated
Procedure: as §3

[8] = Cytotoxicity, MTT reduction assay; type: cell-based; details: African green monkey, 48 hr
Procedure: as §3

[9] = tested on: Streptococcus pyogenes ATCC 19615; assay: MIC, broth microdilution; type: cell-based; details: for MIC: Streptococcus pyogenes, ATCC19615
Procedure: as §1

MRSA Strain 5749 [10] = assay: MIC, broth microdilution; type: cell-based; details: Staphylococcus aureus, clinical strain, read-out: MIC MRSA Strain 5749
Procedure: as §1

[11] = tested on: Staphylococcus aureus ATCC 29212; assay: MIC, broth microdilution; type: cell-based; details: for MIC: Staphylococcus aureus, ATCC29212
Procedure: as §1

MRSA Strain 6100 [12] = assay: MIC, broth microdilution; type: cell-based; details: Staphylococcus aureus, clinical strain, — = no activity up to 10 μg/ml, read-out: MIC MRSA Strain 6100
Procedure: as §1

[13] = tested on: Enterococcus faecalis ATCC 29213; assay: MIC, broth microdilution; type: cell-based; details: for MIC: Enterococcus faecalis, ATCC29213
Procedure: as §1

MRSA Strain 5912 [14] = assay: MIC, broth microdilution; type: cell-based; details: Staphylococcus aureus, clinical strain, read-out: MIC MRSA Strain 5912
Procedure: as §1

MRSA ATCC 43300 [15] = assay: MIC, broth microdilution; type: cell-based; details: Staphylococcus aureus; — = no activity up to 10 μg/ml; read-out: MIC MRSA ATCC 43300
Procedure: as §1

MRSA Strain 6154 [16] = assay: MIC, broth microdilution; type: cell-based; details: Staphylococcus aureus, clinical strain, read-out: MIC MRSA Strain 6154
Procedure: as §1

MRSA Strain 6613 [17] = assay: MIC, broth microdilution; type: cell-based; details: Staphylococcus aureus, clinical strain, read-out: MIC MRSA Strain 6613
Procedure: as §1

SMILES: Cl.NC(COc1ccc(Cl)c(Cl)c1)COc1ccc(Cl)c(Cl)c1 [CPD22, 1,3‐Bis(3,4‐dichlorophenoxy)propan‐2‐aminium chloride]
- melting point: 224.1 to 225.6 °C
- MIC (MRSA strains): 2.5 µg/mL to 5 µg/mL and 5.99 µM to 12 µM
- MIC [1]: 2.5 µg/mL to 5 µg/mL and 5.99 µM to 12 µM
- MBC (E. faecalis ATCC 29213): > 23.9 µM
- MBC (MRSA Strain 5749 [2]): 5.99 µM
- MBC (S. pyogenes ATCC 19615): 23.9 µM
- MBC (MRSA Strain 6100 [3]): 23.9 µM
- MBC (MRSA Strain 5912 [4]): 5.99 µM
- MBC (MRSA ATCC 43300 [5]): 12 µM
- MBC (MRSA Strain 6154 [6]): > 23.9 µM
- MBC (MRSA Strain 6613 [7]): 12 µM
- MBC (S. aureus ATCC 29212): 12 µM
- Selective Index (SI), higher value (BSC‐40 cells): 1.77
- Selective Index (SI), higher value (Vero cells): 2.19
- CC50 at 48 h ([8]; BSC-40 cells, BSC‐40, MTT, read-out: CC50 ± SD): 10.6 ± 3.16 µM
- CC50 at 48 h ([8]; Vero cells, MTT, read-out: CC50): 5.47 ± 1.89 µg/mL
- CC50 at 48 h ([8]; Vero cells, MTT, read-out: CC50 ± SD): 13.1 ± 4.53 µM
- MIC ([9]; 24 hr, 35°C, read-out: MIC Streptococcus pyogenes ATCC 19615): 5.99 µM
- MIC ([9]; read-out: MIC against S. pyogenes): 2.5 µg/mL
- Antibacterial activity in initial screening, S. pyogenes ([9]; concentration of 10 μg/ml): inhibited the growth
- MIC (MRSA Strain 5749 [10]): 5.99 µM
- MIC ([11]; 24 hr, 35°C, read-out: MIC Staphylococcus aureus ATCC 29212): 12 µM
- MIC ([11]; read-out: MIC against S. aureus): 5 µg/mL
- Antibacterial activity in initial screening, S. aureus ([11]; concentration of 10 μg/ml): inhibited the growth
- MIC (MRSA Strain 6100 [12]): 5.99 µM
- MIC ([13]; 24 hr, 35°C, — = no activity up to 10 μg/ml, read-out: MIC Enterococcus faecalis ATCC 29213): 12 µM
- MIC ([13]; read-out: MIC against E. faecalis): 5 µg/mL
- Antibacterial activity in initial screening, E. faecalis ([13]; concentration of 10 μg/ml): inhibited the growth
- MIC (MRSA Strain 5912 [14]): 5.99 µM
- MIC (MRSA ATCC 43300 [15]): 12 µM
- MIC (MRSA Strain 6154 [16]): 5.99 µM
- MIC (MRSA Strain 6613 [17]): 12 µM
